Assay results taken from patent US20110021570A1, “PYRIDONE GLUCOKINASE ACTIVATORS” (priority 2009, published 2011).

Target: T1, Recombinant human liver GK1 (GST-GK) (Homo sapiens, UniProt P35557)
T1 construct: made in house; host or cells: E. coli
T1 sequence (P35557 1-466 isoform P35557-2): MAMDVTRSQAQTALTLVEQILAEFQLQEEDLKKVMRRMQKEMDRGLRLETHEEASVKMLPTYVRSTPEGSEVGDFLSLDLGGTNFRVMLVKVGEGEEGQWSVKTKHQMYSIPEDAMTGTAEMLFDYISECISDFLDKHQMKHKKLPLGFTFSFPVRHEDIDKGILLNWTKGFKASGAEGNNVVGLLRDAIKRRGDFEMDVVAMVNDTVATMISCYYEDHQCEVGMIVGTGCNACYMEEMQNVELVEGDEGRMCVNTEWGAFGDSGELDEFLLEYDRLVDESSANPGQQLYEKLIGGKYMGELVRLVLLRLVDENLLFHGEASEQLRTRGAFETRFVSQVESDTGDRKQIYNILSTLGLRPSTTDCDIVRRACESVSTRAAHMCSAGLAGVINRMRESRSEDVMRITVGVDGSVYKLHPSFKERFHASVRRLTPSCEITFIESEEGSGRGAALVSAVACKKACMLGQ
Experiment: Glucokinase in vitro assay (G6PDH-coupled, NADH generation)
Assay type: biochemical
Settings: concentration of activator that produced a 50% increase in the activity of GK; 5 mM D-glucose, 30° C., pH 7.1
Description: Glucokinase In Vitro Assay Protocol: Glucokinase (GK) was assayed by coupling the production of glucose-6-phosphate to the generation of NADH with glucose-6-phosphate dehydrogenase (G6PDH, 0.75-1 kunits/mg; Boehringer Mannheim, Indianapolis, Ind.) from Leuconostoc mesenteroides as the coupling enzyme:
Recombinant human liver GK1 was expressed in E. coli as a glutathione S-transferase fusion protein (GST-GK) [Liang et al, 1995] and was purified by chromatography over a glutathione-Sepharose 4B affinity column using the procedure provided by the manufacturer (Amersham Pharmacia Biotech, Piscataway, N.J.).
The assay was conducted at 30° C. in a flat bottom 96-well tissue culture plate from Costar (Cambridge, Mass.) with a final incubation volume of 120 μL. The incubation reaction contained the following: 25 mM Hepes buffer (pH 7.1), 25 mM KCl, 5 mM D-glucose, 1 mM ATP, 1.8 mM NAD, 2 mM MgCl2, 1 μM sorbitol-6-phosphate, 1 mM dithiothreitol, test drug or 10% DMSO, ˜7 units/ml G6PDH, and GK (see below). All organic reagents were >98% pure and were from Boehringer Mannheim with the exceptions of D-glucose and Hepes which were from Sigma Chemical Co, St Louis, Mo. Test compounds were dissolved in DMSO and were added to the incubation reaction minus GST-GK in a volume of 12 μL to yield a final DMSO concentration of 10%. This mix was pre-incubated in the temperature controlled chamber of a SPECTRAmax 250 microplate spectrophotometer (Molecular Devices Corporation, Sunnyvale, Calif.) for 10 minutes to allow temperature equilibrium and then the reaction was started by the addition of […].
After addition of enzyme, the increase in optical density (OD) at 340 nm was monitored spectrophotometrically to determine the rate of change (OD340 per min). The GK activity (0D340/min) in control wells (10% DMSO minus GK activators) was compared with the activity in wells containing test GK activators, and the concentration of activator that produced a 50% increase in the activity of GK, i.e., the SC1.5, was calculated. The table below provides the in vitro glucokinase activity for the compounds in the Examples: […]

Row | SC1.5 average | Compound
1 | 10.4 µM | CC(C)CC(C(=O)Nc1ccn(C)n1)n1ccc(Oc2cccc(F)c2F)cc1=O (stereo not drawn) [Example 1, 2-[4-(2,3-Difluoro-phenoxy)-2-oxo-2H-pyridin-1-yl]-4-methyl-pentanoic acid (1-methyl-1H-pyrazol-3-yl)-amide]
2 | >30 µM | CC(C)CC(C(=O)Nc1ccn(C)n1)n1ccc(Oc2cccc(F)c2)cc1=O (stereo not drawn) [Example 2, 2-[4-(3-Fluoro-phenoxy)-2-oxo-2H-pyridin-1-yl]-4-methyl-pentanoic acid (1-methyl-1H-pyrazol-3-yl)-amide]
3 | 21.7 µM | CC(C)CC(C(=O)Nc1ccn(C)n1)n1ccc(Oc2ccccc2)cc1=O (stereo not drawn) [Example 3, 4-Methyl-2-(2-oxo-4-phenoxy-2H-pyridin-1-yl)-pentanoic acid (1-methyl-1H-pyrazol-3-yl)-amide]
4 | 7.3 µM | Cc1ccccc1Oc1ccn(C(CC(C)C)C(=O)Nc2ccn(C)n2)c(=O)c1 (stereo not drawn) [Example 4, 4-Methyl-2-(2-oxo-4-o-tolyloxy-2H-pyridin-1-yl)-pentanoic acid (1-methyl-1H-pyrazol-3-yl)-amide]
5 | 4.2 µM | CC(C)CC(C(=O)Nc1ccn(C)n1)n1ccc(Oc2c(F)cccc2F)cc1=O (stereo not drawn) [Example 5, 2-[4-(2,6-Difluoro-phenoxy)-2-oxo-2H-pyridin-1-yl]-4-methyl-pentanoic acid (1-methyl-1H-pyrazol-3-yl)-amide]
6 | 11.4 µM | CC(C)CC(C(=O)Nc1ccn(C)n1)n1ccc(Oc2ccccc2C(F)(F)F)cc1=O (stereo not drawn) [Example 6, 4-Methyl-2-[2-oxo-4-(2-trifluoromethyl-phenoxy)-2H-pyridin-1-yl]-pentanoic acid (1-methyl-1H-pyrazol-3-yl)-amide]
7 | >30 µM | CC(C)CC(C(=O)Nc1ccn(C)n1)n1ccc(Oc2ccc(F)cc2)cc1=O (stereo not drawn) [Example 7, 2-[4-(4-Fluoro-phenoxy)-2-oxo-2H-pyridin-1-yl]-4-methyl-pentanoic acid (1-methyl-1H-pyrazol-3-yl)-amide]
8 | 26.1 µM | CC(C)CC(C(=O)Nc1ccn(C)n1)n1ccc(Oc2cccnc2)cc1=O (stereo not drawn) [Example 8, 4-Methyl-2-[2-oxo-4-(pyridin-3-yloxy)-2H-pyridin-1-yl]-pentanoic acid (1-methyl-1H-pyrazol-3-yl)-amide]
9 | >30 µM | CC(C)CC(C(=O)Nc1ccn(C)n1)n1ccc(Oc2ccccc2-c2ccccc2)cc1=O (stereo not drawn) [Example 9, 2-[4-(Biphenyl-2-yloxy)-2-oxo-2H-pyridin-1-yl]-4-methyl-pentanoic acid (1-methyl-1H-pyrazol-3-yl)-amide]
10 | 4.5 µM | CC(C)CC(C(=O)Nc1ccn(C)n1)n1ccc(Oc2ccccc2C(C)C)cc1=O (stereo not drawn) [Example 10, 2-[4-(2-Isopropyl-phenoxy)-2-oxo-2H-pyridin-1-yl]-4-methyl-pentanoic acid (1-methyl-1H-pyrazol-3-yl)-amide]
11 | 22.5 µM | CC(C)CC(C(=O)Nc1ccn(C)n1)n1ccc(Oc2ccc(F)cc2F)cc1=O (stereo not drawn) [Example 11, 2-[4-(2,4-Difluoro-phenoxy)-2-oxo-2H-pyridin-1-yl]-4-methyl-pentanoic acid (1-methyl-1H-pyrazol-3-yl)-amide]
12 | 9.0 µM | Cc1c(Cl)cccc1Oc1ccn(C(CC(C)C)C(=O)Nc2ccn(C)n2)c(=O)c1 (stereo not drawn) [Example 12, 2-[4-(3-Chloro-2-methyl-phenoxy)-2-oxo-2H-pyridin-1-yl]-4-methyl-pentanoic acid (1-methyl-1H-pyrazol-3-yl)-amide]
13 | 16.6 µM | CC(C)CC(C(=O)Nc1ccn(C)n1)n1ccc(Oc2cc(F)ccc2F)cc1=O (stereo not drawn) [Example 13, 2-[4-(2,5-Difluoro-phenoxy)-2-oxo-2H-pyridin-1-yl]-4-methyl-pentanoic acid (1-methyl-1H-pyrazol-3-yl)-amide]
14 | 2.6 µM | CC(C)CC(C(=O)Nc1ccn(C)n1)n1ccc(Oc2cccc3ccccc23)cc1=O (stereo not drawn) [Example 14, 4-Methyl-2-[4-(naphthalen-1-yloxy)-2-oxo-2H-pyridin-1-yl]-pentanoic acid (1-methyl-1H-pyrazol-3-yl)-amide]
15 | 6.2 µM | CC(C)CC(C(=O)Nc1ccn(C)n1)n1ccc(Oc2ccccc2Cl)cc1=O (stereo not drawn) [Example 15, 2-[4-(2-Chloro-phenoxy)-2-oxo-2H-pyridin-1-yl]-4-methyl-pentanoic acid (1-methyl-1H-pyrazol-3-yl)-amide]
16 | 8.8 µM | CC(C)CC(C(=O)Nc1ccn(C)n1)n1ccc(Oc2ccccc2OC(F)(F)F)cc1=O (stereo not drawn) [Example 16, 4-Methyl-2-[2-oxo-4-(2-trifluoromethoxy-phenoxy)-2H-pyridin-1-yl]pentanoic acid (1-methyl-1H-pyrazol-3-yl)-amide]
17 | 8.4 µM | CC(C)CC(C(=O)Nc1ccn(C)n1)n1ccc(Oc2ccccc2F)cc1=O (stereo not drawn) [Example 17, 2-[4-(2-Fluoro-phenoxy)-2-oxo-2H-pyridin-1-yl]-4-methyl-pentanoic acid (1-methyl-1H-pyrazol-3-yl)-amide]
18 | 8.1 µM | COc1ccccc1Oc1ccn(C(CC(C)C)C(=O)Nc2ccn(C)n2)c(=O)c1 (stereo not drawn) [Example 18, 2-[4-(2-Methoxy-phenoxy)-2-oxo-2H-pyridin-1-yl]-4-methyl-pentanoic acid (1-methyl-1H-pyrazol-3-yl)-amide]
